Assays:
[1] = target: Gamma-aminobutyric acid receptor subunit alpha-1/alpha-2/beta-2/gamma-2 (Homo sapiens, UniProt P14867+P18507+P47869+P47870); type: protein-complex assay
[2] = target: T1, Alpha-2A adrenergic receptor (Homo sapiens, UniProt P08913); type: functional, cell-based
T1 sequence (P08913 whole entry): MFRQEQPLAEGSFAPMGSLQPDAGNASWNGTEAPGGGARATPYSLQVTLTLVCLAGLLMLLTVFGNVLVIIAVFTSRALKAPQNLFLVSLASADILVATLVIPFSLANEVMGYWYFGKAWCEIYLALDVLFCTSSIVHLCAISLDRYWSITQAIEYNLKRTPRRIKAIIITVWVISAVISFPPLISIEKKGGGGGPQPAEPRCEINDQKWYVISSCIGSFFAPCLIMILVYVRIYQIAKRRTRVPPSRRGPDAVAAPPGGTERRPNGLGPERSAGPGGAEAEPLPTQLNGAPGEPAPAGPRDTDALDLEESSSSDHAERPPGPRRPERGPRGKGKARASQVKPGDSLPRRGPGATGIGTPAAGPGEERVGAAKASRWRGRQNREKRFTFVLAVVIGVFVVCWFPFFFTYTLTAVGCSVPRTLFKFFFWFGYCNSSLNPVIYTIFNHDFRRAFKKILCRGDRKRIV

[3] = target: T1, Alpha-2A adrenergic receptor; type: functional, cell-based; remark: listed apart in the source
[4] = target: Beta-1 adrenergic receptor (Homo sapiens, UniProt P08588); type: functional
Vasopressin V2 receptor = Vasopressin V2 receptor (Homo sapiens, UniProt P30518)
B2 bradykinin receptor = target: T2, B2 bradykinin receptor (Homo sapiens, UniProt P30411)
T2 sequence (P30411 whole entry): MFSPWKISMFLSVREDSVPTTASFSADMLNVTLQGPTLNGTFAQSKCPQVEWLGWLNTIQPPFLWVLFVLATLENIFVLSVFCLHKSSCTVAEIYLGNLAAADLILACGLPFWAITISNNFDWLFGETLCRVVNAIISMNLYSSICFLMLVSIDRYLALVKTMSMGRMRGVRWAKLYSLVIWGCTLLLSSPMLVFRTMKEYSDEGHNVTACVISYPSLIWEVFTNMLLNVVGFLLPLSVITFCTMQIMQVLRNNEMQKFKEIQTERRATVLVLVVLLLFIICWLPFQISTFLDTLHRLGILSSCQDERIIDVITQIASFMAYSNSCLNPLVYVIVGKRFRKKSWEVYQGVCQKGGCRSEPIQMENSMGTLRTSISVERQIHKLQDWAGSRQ

[5] = target: T3, Cholecystokinin receptor type A (Homo sapiens, UniProt P32238)
T3 sequence (P32238 whole entry): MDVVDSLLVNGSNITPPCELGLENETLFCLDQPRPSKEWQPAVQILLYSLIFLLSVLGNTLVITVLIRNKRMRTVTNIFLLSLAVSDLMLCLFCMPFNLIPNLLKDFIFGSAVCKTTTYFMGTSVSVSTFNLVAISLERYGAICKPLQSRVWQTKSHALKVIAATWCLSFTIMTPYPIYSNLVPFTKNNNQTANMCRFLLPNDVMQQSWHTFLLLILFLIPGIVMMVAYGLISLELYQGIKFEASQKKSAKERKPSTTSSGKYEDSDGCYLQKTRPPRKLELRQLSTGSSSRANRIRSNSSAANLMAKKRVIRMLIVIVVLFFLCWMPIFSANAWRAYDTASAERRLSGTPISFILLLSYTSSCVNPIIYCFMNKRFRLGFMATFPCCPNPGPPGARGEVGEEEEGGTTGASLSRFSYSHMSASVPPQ

D(1A) dopamine receptor = D(1A) dopamine receptor (Homo sapiens, UniProt P21728); type: functional, cell-based
Sequence of D(1A) dopamine receptor (P21728 whole entry): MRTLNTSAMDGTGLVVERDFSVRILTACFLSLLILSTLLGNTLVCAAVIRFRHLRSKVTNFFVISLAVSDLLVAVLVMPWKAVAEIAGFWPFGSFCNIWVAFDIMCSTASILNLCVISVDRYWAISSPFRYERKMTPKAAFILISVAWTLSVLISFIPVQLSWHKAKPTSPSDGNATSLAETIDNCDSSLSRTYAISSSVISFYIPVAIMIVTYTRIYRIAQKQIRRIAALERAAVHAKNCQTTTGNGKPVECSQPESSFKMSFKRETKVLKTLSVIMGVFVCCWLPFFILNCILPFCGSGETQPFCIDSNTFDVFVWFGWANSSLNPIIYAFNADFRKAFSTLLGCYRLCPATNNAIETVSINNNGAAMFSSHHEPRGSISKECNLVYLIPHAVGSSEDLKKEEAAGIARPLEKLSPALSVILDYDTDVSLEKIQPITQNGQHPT

[6] = target: Gamma-aminobutyric acid receptor subunit alpha-1 (Rattus norvegicus, UniProt P62813)
Sequence of Gamma-aminobutyric acid receptor subunit alpha-1 (P62813 whole entry): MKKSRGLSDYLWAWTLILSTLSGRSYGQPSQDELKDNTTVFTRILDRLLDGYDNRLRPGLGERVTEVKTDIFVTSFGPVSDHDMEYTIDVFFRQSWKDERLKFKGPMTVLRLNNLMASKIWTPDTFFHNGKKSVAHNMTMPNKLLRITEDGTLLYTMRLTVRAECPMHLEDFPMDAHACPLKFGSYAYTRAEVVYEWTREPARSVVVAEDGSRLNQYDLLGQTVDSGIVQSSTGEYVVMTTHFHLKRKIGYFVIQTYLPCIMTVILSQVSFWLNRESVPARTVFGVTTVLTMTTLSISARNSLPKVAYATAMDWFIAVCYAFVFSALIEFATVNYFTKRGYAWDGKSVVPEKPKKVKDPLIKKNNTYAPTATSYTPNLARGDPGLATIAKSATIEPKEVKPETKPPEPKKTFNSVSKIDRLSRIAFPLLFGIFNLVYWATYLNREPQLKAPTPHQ

[7] = target: Growth hormone secretagogue receptor type 1 (Homo sapiens, UniProt Q92847)
Sequence of Growth hormone secretagogue receptor type 1 (Q92847 whole entry): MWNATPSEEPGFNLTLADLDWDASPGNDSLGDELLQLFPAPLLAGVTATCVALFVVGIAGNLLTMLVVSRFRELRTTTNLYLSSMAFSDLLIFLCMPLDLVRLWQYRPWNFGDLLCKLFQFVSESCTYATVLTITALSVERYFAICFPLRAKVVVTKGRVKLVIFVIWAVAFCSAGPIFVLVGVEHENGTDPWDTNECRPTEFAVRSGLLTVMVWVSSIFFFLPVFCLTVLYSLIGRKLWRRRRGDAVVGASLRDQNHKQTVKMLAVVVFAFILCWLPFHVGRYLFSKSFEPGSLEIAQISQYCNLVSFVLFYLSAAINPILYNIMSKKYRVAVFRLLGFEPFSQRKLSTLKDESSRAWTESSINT

Histamine H2 receptor = Histamine H2 receptor (Homo sapiens, UniProt P25021); type: functional, cell-based
[8] = target: T4, Amine oxidase [flavin-containing] A (Homo sapiens, UniProt P21397); type: functional
T4 sequence (P21397 whole entry): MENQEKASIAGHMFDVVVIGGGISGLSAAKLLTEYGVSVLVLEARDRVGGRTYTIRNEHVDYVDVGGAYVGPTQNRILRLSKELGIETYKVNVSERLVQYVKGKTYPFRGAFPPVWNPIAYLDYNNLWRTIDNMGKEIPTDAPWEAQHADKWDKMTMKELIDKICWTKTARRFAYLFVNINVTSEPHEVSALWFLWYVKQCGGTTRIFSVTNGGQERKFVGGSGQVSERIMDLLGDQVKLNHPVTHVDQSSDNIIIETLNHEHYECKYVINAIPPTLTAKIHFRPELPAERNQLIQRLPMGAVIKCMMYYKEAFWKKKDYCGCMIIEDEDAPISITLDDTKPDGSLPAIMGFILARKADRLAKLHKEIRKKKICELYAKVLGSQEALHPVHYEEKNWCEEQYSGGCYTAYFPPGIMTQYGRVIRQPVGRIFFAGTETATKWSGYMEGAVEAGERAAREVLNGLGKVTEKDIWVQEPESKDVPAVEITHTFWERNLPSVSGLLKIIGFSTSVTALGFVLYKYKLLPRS

[9] = target: cGMP-inhibited 3',5'-cyclic phosphodiesterase 3A (Homo sapiens, UniProt Q14432); type: functional
Sequence of cGMP-inhibited 3',5'-cyclic phosphodiesterase 3A (Q14432 whole entry): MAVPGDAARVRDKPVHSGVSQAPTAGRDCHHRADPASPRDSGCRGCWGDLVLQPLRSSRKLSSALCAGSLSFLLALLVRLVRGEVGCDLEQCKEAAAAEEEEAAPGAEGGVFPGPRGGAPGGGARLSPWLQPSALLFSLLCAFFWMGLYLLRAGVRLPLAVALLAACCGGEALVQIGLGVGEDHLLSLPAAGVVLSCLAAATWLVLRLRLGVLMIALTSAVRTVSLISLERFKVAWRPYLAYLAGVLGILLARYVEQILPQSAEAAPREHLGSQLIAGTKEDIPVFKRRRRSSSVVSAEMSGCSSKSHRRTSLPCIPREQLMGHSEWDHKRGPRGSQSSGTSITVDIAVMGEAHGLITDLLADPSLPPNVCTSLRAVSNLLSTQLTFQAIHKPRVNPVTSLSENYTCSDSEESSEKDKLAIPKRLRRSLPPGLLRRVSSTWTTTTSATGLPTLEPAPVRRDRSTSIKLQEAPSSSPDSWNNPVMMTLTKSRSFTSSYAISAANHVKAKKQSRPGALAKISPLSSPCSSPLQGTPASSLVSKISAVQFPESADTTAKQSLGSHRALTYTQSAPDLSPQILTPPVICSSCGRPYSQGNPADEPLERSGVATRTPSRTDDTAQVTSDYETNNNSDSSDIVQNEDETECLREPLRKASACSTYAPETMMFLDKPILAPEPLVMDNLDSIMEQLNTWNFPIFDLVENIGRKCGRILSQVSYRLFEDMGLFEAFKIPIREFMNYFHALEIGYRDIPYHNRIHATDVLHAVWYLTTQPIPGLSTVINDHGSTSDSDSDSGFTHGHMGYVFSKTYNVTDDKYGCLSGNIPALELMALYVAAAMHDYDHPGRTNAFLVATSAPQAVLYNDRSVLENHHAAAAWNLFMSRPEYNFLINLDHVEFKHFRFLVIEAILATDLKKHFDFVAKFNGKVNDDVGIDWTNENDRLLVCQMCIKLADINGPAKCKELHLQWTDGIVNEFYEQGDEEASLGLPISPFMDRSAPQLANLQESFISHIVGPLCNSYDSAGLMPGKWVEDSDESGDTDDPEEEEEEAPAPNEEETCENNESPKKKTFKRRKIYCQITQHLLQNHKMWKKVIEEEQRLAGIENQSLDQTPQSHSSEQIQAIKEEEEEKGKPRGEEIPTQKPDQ

[10] = target: Glutamate receptor ionotropic, NMDA 1 (Rattus norvegicus, UniProt P35439)
[11] = target: Kappa-type opioid receptor (Homo sapiens, UniProt P41145)
Sequence of Kappa-type opioid receptor (P41145 whole entry): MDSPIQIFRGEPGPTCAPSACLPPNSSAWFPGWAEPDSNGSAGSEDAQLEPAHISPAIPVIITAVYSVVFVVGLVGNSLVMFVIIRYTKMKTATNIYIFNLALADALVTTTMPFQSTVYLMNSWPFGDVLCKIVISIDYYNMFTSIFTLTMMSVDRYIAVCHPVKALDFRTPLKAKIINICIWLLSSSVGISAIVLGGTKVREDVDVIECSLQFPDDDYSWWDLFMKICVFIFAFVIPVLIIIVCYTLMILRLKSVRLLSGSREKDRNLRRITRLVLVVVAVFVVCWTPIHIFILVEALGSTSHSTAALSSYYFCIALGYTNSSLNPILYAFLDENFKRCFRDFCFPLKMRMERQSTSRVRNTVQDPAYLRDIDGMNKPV
Note: assay procedure not described here.

Sequence of Gamma-aminobutyric acid receptor subunit alpha-1/alpha-2/beta-2/gamma-2 (P14867 whole entry): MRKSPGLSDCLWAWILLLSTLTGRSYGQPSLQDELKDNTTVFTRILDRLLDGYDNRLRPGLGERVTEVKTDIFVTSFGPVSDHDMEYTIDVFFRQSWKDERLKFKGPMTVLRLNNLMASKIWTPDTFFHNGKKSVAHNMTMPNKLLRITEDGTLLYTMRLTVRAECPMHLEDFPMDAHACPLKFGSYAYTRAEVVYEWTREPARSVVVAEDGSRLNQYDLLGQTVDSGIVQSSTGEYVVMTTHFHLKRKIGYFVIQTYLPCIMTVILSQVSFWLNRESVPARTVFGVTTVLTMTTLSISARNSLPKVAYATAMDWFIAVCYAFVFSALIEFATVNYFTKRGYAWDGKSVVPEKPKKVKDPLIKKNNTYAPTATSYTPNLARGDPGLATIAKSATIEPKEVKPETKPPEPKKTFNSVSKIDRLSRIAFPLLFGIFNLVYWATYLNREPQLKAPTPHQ
Sequence of Gamma-aminobutyric acid receptor subunit alpha-1/alpha-2/beta-2/gamma-2 (P47870 whole entry): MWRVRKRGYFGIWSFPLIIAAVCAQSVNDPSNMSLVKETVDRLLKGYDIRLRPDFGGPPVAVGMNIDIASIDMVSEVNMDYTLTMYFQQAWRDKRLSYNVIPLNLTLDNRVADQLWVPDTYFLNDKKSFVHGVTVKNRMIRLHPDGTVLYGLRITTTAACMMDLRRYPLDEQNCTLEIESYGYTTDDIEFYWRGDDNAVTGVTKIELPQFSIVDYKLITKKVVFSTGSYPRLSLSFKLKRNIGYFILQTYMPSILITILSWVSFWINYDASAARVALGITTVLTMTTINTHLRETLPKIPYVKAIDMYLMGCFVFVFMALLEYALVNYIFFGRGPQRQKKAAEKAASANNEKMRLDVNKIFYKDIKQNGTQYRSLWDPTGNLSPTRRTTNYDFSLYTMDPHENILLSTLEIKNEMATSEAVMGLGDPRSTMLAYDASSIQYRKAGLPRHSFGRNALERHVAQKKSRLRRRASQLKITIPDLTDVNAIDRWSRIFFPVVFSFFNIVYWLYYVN
Sequence of Gamma-aminobutyric acid receptor subunit alpha-1/alpha-2/beta-2/gamma-2 (P18507 whole entry): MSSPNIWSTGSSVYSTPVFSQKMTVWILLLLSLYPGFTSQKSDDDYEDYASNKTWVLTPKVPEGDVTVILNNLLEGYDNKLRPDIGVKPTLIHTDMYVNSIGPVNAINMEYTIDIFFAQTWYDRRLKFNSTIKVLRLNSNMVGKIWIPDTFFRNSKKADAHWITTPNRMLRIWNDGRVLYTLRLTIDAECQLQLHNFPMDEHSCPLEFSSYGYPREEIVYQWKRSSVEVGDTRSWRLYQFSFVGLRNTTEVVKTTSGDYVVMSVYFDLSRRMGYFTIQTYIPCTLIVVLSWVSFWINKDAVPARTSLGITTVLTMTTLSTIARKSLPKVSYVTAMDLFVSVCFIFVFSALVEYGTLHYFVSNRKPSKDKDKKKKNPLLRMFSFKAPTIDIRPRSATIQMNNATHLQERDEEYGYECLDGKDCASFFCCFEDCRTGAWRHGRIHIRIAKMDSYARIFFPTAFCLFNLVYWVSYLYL
Sequence of Gamma-aminobutyric acid receptor subunit alpha-1/alpha-2/beta-2/gamma-2 (P47869 whole entry): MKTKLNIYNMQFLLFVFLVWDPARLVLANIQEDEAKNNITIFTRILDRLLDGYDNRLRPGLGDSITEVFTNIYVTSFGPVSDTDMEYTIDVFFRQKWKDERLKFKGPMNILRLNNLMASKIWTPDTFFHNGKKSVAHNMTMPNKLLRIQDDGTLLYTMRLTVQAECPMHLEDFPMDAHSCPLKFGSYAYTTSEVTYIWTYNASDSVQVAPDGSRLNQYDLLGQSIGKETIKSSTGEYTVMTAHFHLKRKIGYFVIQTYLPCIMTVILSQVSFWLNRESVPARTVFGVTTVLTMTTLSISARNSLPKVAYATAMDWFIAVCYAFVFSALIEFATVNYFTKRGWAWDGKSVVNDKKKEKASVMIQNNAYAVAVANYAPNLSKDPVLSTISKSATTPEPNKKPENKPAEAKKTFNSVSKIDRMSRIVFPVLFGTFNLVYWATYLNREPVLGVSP

`C[C@@H](O)[C@H]1C(=O)N2C(C(=O)O)=C([C@H]3CCCO3)S[C@H]12` [FAROPENEM] gave an AC50 [1] of over 30 µM.
Work on `CC(N)CCCC(C)(C)O` (stereo not drawn) [HEPTAMINOL] yielded an AC50 [1] of over 30 µM.
With `CC[C@H]1OC(=O)[C@H](C)[C@@H](O[C@H]2C[C@@](C)(OC)[C@@H](O)[C@H](C)O2)[C@H](C)[C@@H](O[C@@H]2O[C@H](C)C[C@H](N(C)C)[C@H]2O)[C@](C)(OC)C[C@@H](C)C(=O)[C@H](C)[C@@H](O)[C@]1(C)O` [CLARITHROMYCIN] the AC50 [2] was over 30 µM, the AC50 [3] was over 30 µM and the AC50 [4] was over 30 µM. The AC50 (Vasopressin V2 receptor) was over 30 µM, the AC50 (B2 bradykinin receptor) was over 30 µM and the AC50 [5] was over 30 µM. It also gave an AC50 (D(1A) dopamine receptor) of over 30 µM, an AC50 [6] of over 30 µM and an AC50 [7] of over 30 µM. For the same compound, the AC50 (Histamine H2 receptor) was over 30 µM, the AC50 [8] was over 30 µM and the AC50 [9] was over 30 µM.
For `CC[N+](C)(CC)CCOC(=O)C1c2ccccc2Oc2ccccc21` [METHANTHELINE], the AC50 [1] was over 30 µM.
With `c1ccc2[nH]c(-c3cscn3)nc2c1` [THIABENDAZOLE] the AC50 [1] was over 30 µM.
With `OC(CCCN1CCCCC1)(c1ccccc1)c1ccccc1` [DIPHENIDOL] the AC50 [1] was over 30 µM.
Compound `O=[N+]([O-])O[C@H]1CO[C@H]2[C@@H]1OC[C@H]2O[N+](=O)[O-]` [ISOSORBIDE DINITRATE] has an AC50 [1] of over 30 µM.
Work on `O=C(Nc1nc(-c2cc(Cl)cs2)c(N2CCN(C3CCCCC3)CC2)s1)c1cnc(N2CCC(C(=O)O)CC2)c(Cl)c1` [AVATROMBOPAG] yielded an AC50 [4] of over 10 µM, an AC50 [6] of over 30 µM and an AC50 [7] of over 10 µM. It also gave an AC50 [10] of over 10 µM, an AC50 [11] of over 10 µM and an AC50 [9] of over 10 µM.
`CO[C@@]1(NC(=O)CSCC#N)C(=O)N2C(C(=O)O)=C(CSc3nnnn3C)CS[C@@H]21` [CEFMETAZOLE] was tested, and the AC50 [2] was over 30 µM, the AC50 [3] was over 30 µM and the AC50 (D(1A) dopamine receptor) was over 30 µM. The AC50 [6] was over 30 µM, the AC50 [10] was over 30 µM and the AC50 (Histamine H2 receptor) was over 30 µM. For the same compound, the AC50 [11] was over 30 µM, the AC50 [8] was over 30 µM and the AC50 [9] was over 30 µM.
For `CC(=O)O[C@H]1C[C@H](O[C@H]2[C@@H](O)C[C@H](O[C@H]3[C@@H](O)C[C@H](O[C@H]4CC[C@@]5(C)[C@H](CC[C@@H]6[C@@H]5C[C@@H](O)[C@]5(C)[C@@H](C7=CC(=O)OC7)CC[C@]65O)C4)O[C@@H]3C)O[C@@H]2C)O[C@H](C)[C@H]1O[C@@H]1O[C@H](CO)[C@@H](O)[C@H](O)[C@H]1O` [LANATOSIDE C], the AC50 [6] was over 30 µM.
`Nc1ncnc(Nc2ccc(Cl)cc2)n1` [CHLORAZANIL] showed an AC50 [6] of over 30 µM.
`C[C@@H]1C[C@H]2[C@@H]3CCC4=CC(=O)C=C[C@]4(C)C3=CC[C@]2(C)[C@H]1C(=O)CN1CCN(c2cc(N3CCCC3)nc(N3CCCC3)n2)CC1` [TIRILAZAD] showed an AC50 [6] of over 30 µM.
Compound `CC(=O)OC(C)OC(=O)C(C)c1ccc(-c2ccccc2)c(F)c1` (stereo not drawn) has an AC50 [6] of over 30 µM.
`CC1(C)S[C@@H]2[C@H](NC(=O)[C@H](NC(=O)N3CCN(S(C)(=O)=O)C3=O)c3ccccc3)C(=O)N2[C@H]1C(=O)O` [MEZLOCILLIN] was tested, and the AC50 [6] was over 30 µM.
